Source: patent publication US10550116B2, “Fused bicyclic heterocycle derivatives as pesticides” (BAYER CROPSCIENCE AKTIENGESELLSCHAFT, priority 2015, dated 2020)

Tests used:
Musca domestica = Musca domestica test; assay type: in vivo; conditions: 4 ppm; adult houseflies; after 2 days
Method: To produce a suitable active ingredient preparation, 10 mg of active ingredient are mixed with 0.5 ml of dimethyl sulphoxide, and the concentrate is diluted with water to the desired concentration. Vessels containing a sponge treated with sugar solution and the active ingredient preparation of the desired concentration are populated with 10 adult houseflies (Musca domestica). After 2 days, the kill in % is determined. 100% means that all of the flies have been killed; 0% means that none of the flies have been killed.

Phaedon cochleariae = Phaedon cochleariae spray test; assay type: in vivo; conditions: foliar, 168 h, 500 g/ha, larvae on Chinese cabbage leaf discs, after 7 days, read-out: efficacy
Method: (§1) To produce a suitable active ingredient preparation, 1 part by weight of active ingredient is dissolved with the stated parts by weight of solvent and made up with water containing an emulsifier concentration of 1000 ppm until the desired concentration is attained. To produce further test concentrations, the preparation is diluted with emulsifier-containing water. Discs of Chinese cabbage leaves (Brassica pekinensis) are sprayed with an active ingredient preparation of the desired concentration and, after drying, populated with larvae of the mustard beetle (Phaedon cochleariae). After 7 days, the efficacy in % is determined. 100% means that all the beetle larvae have been killed; 0% means that no beetle larvae have been killed.

Spodoptera frugiperda = Spodoptera frugiperda spray test; assay type: in vivo; conditions: foliar, 168 h, 500 g/ha, caterpillars on maize leaf discs, after 7 days, read-out: efficacy
Method: as §1, with “water. Leaf discs” for “water. Discs”, “of maize (Zea mays)” for “of Chinese cabbage leaves (Brassica pekinensis)”, “with caterpillars” for “with larvae”, “the armyworm (Spodoptera frugiperda).” for “the mustard beetle (Phaedon cochleariae).”, “the caterpillars” for “the beetle larvae”, “no caterpillar has” for “no beetle larvae have”

Myzus persicae = Myzus persicae spray test; assay type: in vivo; conditions: foliar, 100 g/ha, Chinese cabbage leaf discs, after 5-6 days, read-out: efficacy
Method: as §1, with “pekinensis) infested by all stages of the green peach aphid (Myzus persicae)” for “pekinensis)”, “concentration.” for “concentration and, after drying, populated with larvae of the mustard beetle (Phaedon cochleariae).”, “5-6” for “7”, “aphids” for “beetle larvae”

[1] = log P by HPLC on reversed-phase column (EEC Directive 79/831 Annex V.A8); assay type: physicochemical; conditions: reversed-phase C18 HPLC column; pH 7.8, aqueous ammonium hydrogencarbonate/acetonitrile; 55° C.; read-out: log P (neutral)
Method: The log P values are measured according to EEC Directive 79/831 Annex V.A8 by HPLC (high-performance liquid chromatography) on a reversed-phase column (C 18). Temperature: 55° C. The LC-MS determination in the acidic range is effected at pH 2.7 using 0.1% aqueous formic acid and acetonitrile (contains 0.1% formic acid) as eluents; linear gradient from 10% acetonitrile to 95% acetonitrile. Called log P (HCOOH) in the table. LC-MS determination in the neutral range is effected at pH 7.8 with 0.001 molar aqueous ammonium hydrogencarbonate solution and acetonitrile as eluents; linear gradient from 10% acetonitrile to 95% acetonitrile. Called log P (neutral) in the table. Calibration is carried out using unbranched alkan-2-ones (having 3 to 16 carbon atoms) with known log P values (log P values determined on the basis of the retention times by linear interpolation between two successive alkanones).

Ctenocephalides felis [2] = test: Ctenocephalides felis oral test; assay type: in vivo; conditions: 100 ppm in citrated cattle blood; adult cat fleas; after 2 days
Method: For the purpose of production of a suitable active ingredient preparation, 10 mg of active ingredient are mixed with 0.5 ml of dimethyl sulphoxide. Dilution with citrated cattle blood gives the desired concentration. About 20 unfed adult cat fleas (Ctenocephalides felis) are placed into a chamber which is closed at the top and bottom with gauze. A metal cylinder whose bottom end is closed with parafilm is placed onto the chamber. The cylinder contains the blood/active ingredient preparation, which can be imbibed by the fleas through the parafilm membrane. After 2 days, the kill in % is determined. 100% means that all of the fleas have been killed; 0% means that none of the fleas have been killed.

Lucilia cuprina = Lucilia cuprina test; assay type: in vivo; conditions: 100 ppm; L1 larvae; after 2 days
Method: To produce a suitable active ingredient preparation, 10 mg of active ingredient are mixed with 0.5 ml of dimethyl sulphoxide, and the concentrate is diluted with water to the desired concentration. About 20 L1 larvae of the Australian sheep blowfly (Lucilia cuprina) are transferred into a test vessel containing minced horsemeat and the active ingredient preparation of the desired concentration. After 2 days, the kill in % is determined. 100% means that all the larvae have been killed; 0% means that no larvae have been killed.

Meloidogyne incognita = Meloidogyne incognita test; assay type: in vivo; conditions: 20 ppm; lettuce; after 14 days
Method: To produce a suitable preparation of active ingredient, 1 part by weight of active ingredient is mixed with the stated amount of solvent and the concentrate is diluted with water to the desired concentration. Vessels are filled with sand, active ingredient solution, an egg/larvae suspension of the southern root-knot nematode (Meloidogyne incognita) and lettuce seeds. The lettuce seeds germinate and the plants develop. The galls develop on the roots. After 14 days, the nematicidal efficacy in % is determined by the formation of galls. 100% means that no galls were found; 0% means that the number of galls on the treated plants corresponds to the untreated control.

Ctenocephalides felis [3] = test: Ctenocephalides felis in vitro contact test with adult cat fleas; assay type: in vivo; conditions: application rate 5 μg/cm^2 (=500 g/ha), after 48 h
Method: For the coating of the test tubes, 9 mg of active ingredient are first dissolved in 1 ml of acetone p.a. and then diluted to the desired concentration with acetone p.a. 250 μl of the solution are distributed homogeneously on the inner walls and the base of a 25 ml test tube by turning and rocking on an orbital shaker (rocking rotation at 30 rpm for 2 h). With 900 ppm active ingredient solution and internal surface area 44.7 cm^2, given homogeneous distribution, an area-based dose of 5 μg/cm^2 is achieved. After the solvent has evaporated off, the tubes are populated with 5-10 adult cat fleas (Ctenocephalides felis), sealed with a perforated plastic lid and incubated in a horizontal position at room temperature and ambient humidity. After 48 h, efficacy is determined. To this end, the test tubes are stood upright and the fleas are knocked to the base of the tube. Fleas which remain motionless at the base or move in an uncoordinated manner are considered to be dead or moribund. […] 100% efficacy means that all the fleas were dead or moribund. 0% efficacy means that no fleas were harmed.

For `CCS(=O)(=O)c1cc2ccccc2nc1-c1nc2cc(C(F)(F)F)ncc2n1C` [Example I-1, 3-Ethylsulphonyl-2-[3-methyl-6-(trifluoromethyl)imidazo[4,5-c]pyridin-2-yl]quinoline], the “efficacy (kill)” value (Musca domestica) was 75%, the pest or weed control at 500 g/ha (Phaedon cochleariae) was 100% and the pest or weed control at 500 g/ha (Spodoptera frugiperda) was 100%. The pest or weed control at 100 g/ha (Myzus persicae) was 90%, the chromatographic logP [1] was 2.75 and the “efficacy (kill)” value (Ctenocephalides felis [2]) was 100%. The “efficacy (kill)” value (Lucilia cuprina) was 100%, the “nematicidal efficacy (formation of galls)” value (Meloidogyne incognita) was 70% and the efficacy (Ctenocephalides felis [3]) was 100%.
